Laboratory results: US6124460A, “Isoquinuclidine derivatives, method of manufacturing the same and therapeutic agents for hypercholesterolemia containing these compounds” (Kotobuki Pharmaceutical Co. Ltd., priority 1998, dated 2000)
Counter-ions that a name gives are not always drawn.

Key:
[1] = target: T1, Squalene Synthase in Rat Liver Microsomes (Rattus norvegicus, UniProt Q02769); assay: Assay of squalene synthase (SQS) in rat liver microsomes; format: biochemical, male Sprague-Dawley rat; settings: for Inhibition of SQS (N.E.; no effect at a dose in the parentheses): at 10^-5 M; for IC50: 2.5 μM FPP, pH 7.4, 30 min at 37° C., read-out: Inhibition of SQS IC50
T1 construct: microsomes were prepared from male Sprague-Dawley rat; from tissue; host or cells: rat liver microsomes (male Sprague-Dawley)
T1 sequence (Q02769 1-416): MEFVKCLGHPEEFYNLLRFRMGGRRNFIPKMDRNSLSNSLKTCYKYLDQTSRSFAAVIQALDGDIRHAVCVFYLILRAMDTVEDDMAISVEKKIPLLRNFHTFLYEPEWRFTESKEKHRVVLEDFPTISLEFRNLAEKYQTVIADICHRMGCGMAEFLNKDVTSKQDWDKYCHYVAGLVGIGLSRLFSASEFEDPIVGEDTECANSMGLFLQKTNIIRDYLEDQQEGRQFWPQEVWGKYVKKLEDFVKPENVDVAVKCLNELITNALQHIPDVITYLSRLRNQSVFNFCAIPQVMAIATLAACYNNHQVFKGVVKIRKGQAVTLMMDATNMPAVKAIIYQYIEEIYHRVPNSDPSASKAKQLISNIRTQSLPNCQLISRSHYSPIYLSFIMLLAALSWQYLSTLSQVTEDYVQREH
Experimental: 1. Assay of Squalene Synthase in Rat Liver Microsomes Squalene synthase assay was performed in accordance with the method described by [NT] (Biochem. Pharmacol., 51, 1477 (1996)). That is to say, microsomes were prepared from male Sprague-Dawley rat (weight range 250-300 g) by homogenising in 50 mM phosphate buffer, pH 7.4, 5.0 mM MgCl2, 1.0 mM EDTA, and 1.0 mM dithiothreitol using a polytron (Kinetica, Sweden). The homogenates were centrifuged at 10,000 g for 20 min at 4° C., and, after spinning the supernatants were poured into the tube through cotton gauze. Microsomes were then isolated from the supernatant by centrifugation at 178,000 g for 90 min at 4° C. Microsomes were then resuspended in homogenisation buffer and stored in aliquots at -80° C. until use. For in vitro studies, the compounds were dissolved in DMSO. The squalene synthase reaction system in a volume of 100 μl contained 50 mM phosphate buffer, pH 7.4, 5.0 mM MgCl2, 10 mM KF, 0.5 mM NADPH, 50 mM ascorbic acid, 20U /ml ascorbate oxidase, 2.5 μM farnesyl-pyrophosphate (FPP) and microsomes, 40 μg/ml. The compounds (in 1 μl DMSO), microsomes (in 10 μl buffer) and other reagent ([…]) were pre-incubated for 5 min at 37° C. The reactions were started by the addition of 5 μl of an aqueous solution of FPP containing about 0.1 μCi of [H] FPP; incubations were at 37° C. for 30 min. The reactions were then stopped by the addition of 50 μl of 20% KOH in 50% ethanol. […] The IC50 values were calculated.

[2] = tested on: Sterol Biosynthesis; assay: Assay of sterol biosynthesis in rats (inhibition of cholesterol biosynthesis); format: in vivo; settings: female Sprague-Dawley rats, liver; for inhibition at 30 mg/kg: po, vs vehicle-treated controls; for inhibition at 30 mg/kg / Inhibition of cholesterol biosynthesis (N.E.; no effect at a dose in the parentheses): 30 mg/kg p.o.

Row | IC50 [1] [nM] | SMILES | other results
1 |  | C#Cc1ccc(OCCCN2C(=O)C3CCC2CC3)c(CC=C)c1 [Compound 37, 2-[3-[(2-allyl-4-ethynyl)phenoxy]propane-1-yl]-2-azabicyclo[2.2.2]oct-3-one] | Inhibition of SQS (N.E.; no effect at a dose in the parentheses) [1]: N.E.
2 | 69 | O=C1C2CCC(CC2)N1CCCOc1ccc(C#Cc2ccc(-c3cccc4ncccc34)cc2)cc1 [Compound 23, 2-[3-[4-[4-(quinolin-5-yl)phenylethynyl]phenoxy]propan-1-yl]-2-azabicyclo[2.2.2]octan-3-one hydrochloride] | inhibition at 30 mg/kg ([2]; Rattus norvegicus): 46.7%
3 | 490 | O=C(O)C#Cc1ccc(OCCCN2C(=O)C3CCC2CC3)cc1 [Compound 7, 4-[3-(3-oxo-2-azabicyclo[2.2.2]octan-2-yl)propoxy]phenylpropiolic acid] | 
4 | 3100 | CCOC(=O)C#Cc1ccc(OCCCN2C(=O)C3CCC2CC3)cc1 [Compound 6, Ethyl 4-[3-(3-oxo-2-azabicyclo[2.2.2]octan-2-yl)propoxy]phenylpropiolate] | 
5 | 11 | C#Cc1ccc(OCCCN2CC3CCC2CC3)c(CC=C)c1 [Compound 38, 2-[3-[(2-Allyl-4-ethynyl)phenoxy]propane-1-yl]-2-azabicyclo[2.2.2]octane hydrochloride] | inhibition at 30 mg/kg ([2]; Rattus norvegicus): 50.4%
6 | 490 | C#Cc1ccc(OCCCCN2C(=O)C3CCC2CC3)cc1 [Compound 14, 2-[4-(4-ethynylphenoxy)butane-1-yl]-2-azabicyclo[2.2.2]-octane-3-one] | 
7 | 23 | O=C(O)c1ccc(C#Cc2ccc(OCCCN3C(=O)C4CCC3CC4)cc2)cc1 [Compound 16, 4-[4-[3-(3-oxo-2-azabicyclo[2.2.2]octan-2-yl)propoxy]phenylethynyl]-benzoic acid] | Inhibition of cholesterol biosynthesis (N.E.; no effect at a dose in the parentheses) [2]: N.E.
8 | 56 | O=C(O)c1ccc(C#Cc2ccc(OCCCN3C(=O)C4CCC3CC4)cc2)s1 [Compound 21, 5-[4-[3-(3-oxo-2-azabicyclo[2.2.2]octan-2-yl)propoxy]phenylethynyl]-thiophene-2-carboxylic acid] | 
9 | 690 | CCOC(=O)c1ccc(C#Cc2ccc(OCCCN3CC4CCC3CC4)cc2)cc1 [Compound 20, Ethyl 4-[4-[3-(2-azabicyclo[2.2.2]octan-2-yl)propoxy]phenylethynyl]-benzoate hydrochloride] | 
10 | 56000 | O=C1C2CCC(CC2)N1CCCOc1ccc(C#Cc2ccc(N3C(=O)C4CCC3CC4)cc2)cc1 [Compound 24, 2-[3-[4-[4-(3-oxo-2-azabicyclo[2.2.2]octan-2-yl)phenylethynyl]phenoxy]propan-1-yl]-2-azabicyclo[2.2.2]octan-3-one] | 
11 | 19 | C#Cc1ccc(OCCCN2CC3CCC2CC3)cc1 [Compound 10, 2-[3-(4-ethynylphenoxy)propane-1-yl]-2-azabicyclo[2.2.2]octane hydrochloride] | inhibition at 30 mg/kg ([2]; Rattus norvegicus): 48.6%
12 | 64 | CCOC(=O)C#Cc1ccc(OCCCN2CC3CCC2CC3)cc1 [Compound 12, Ethyl 4-[3-(2-azabicyclo[2.2.2]octan-2-yl)propoxy]phenylpropiolate hydrochloride] | 
13 | 410 | CCOC(=O)c1ccc(C#Cc2ccc(OCCCN3C(=O)C4CCC3CC4)cc2)cc1 [Compound 15, Ethyl 4-[4-[3-(3-oxo-2-azabicyclo[2.2.2]octan-2-yl)propoxy]phenylethynyl]-benzoate] | 
14 |  | C#Cc1ccc(OCCN2C(=O)C3CCC2CC3)cc1 [Compound 13, 2-[2-(4-ethynylphenoxy)ethyl]-2-azabicyclo[2.2.2]octane-3-one] | Inhibition of SQS (N.E.; no effect at a dose in the parentheses) [1]: N.E.; inhibition at 30 mg/kg ([2]; Rattus norvegicus): 30.3%
15 | 31 | C(#Cc1cccc2ncccc12)c1ccc(OCCCN2CC3CCC2CC3)cc1 [Compound 25, 2-[3-[4-(quinolin-5-yl-ethynyl)phenoxy]propan-1-yl]-2-azabicyclo[2.2.2]-octane dihydrochloride] | 
16 | 39 | Cl.O=C(O)c1ccc(C#Cc2ccc(OCCCN3CC4CCC3CC4)cc2)cc1 [Compound 19, 4-[4-[3-(2-azabicyclo[2.2.2]octan-2-yl)propoxy]phenylethynyl]-benzoic acid hydrochloride] | Inhibition of cholesterol biosynthesis (N.E.; no effect at a dose in the parentheses) [2]: N.E.
17 | 11 | C#Cc1ccc(OCCCN2C(=O)C3CCC2CC3)cc1 [Compound 5, 2-[3-(4-ethynylphenoxy)propane-1-yl]-2-azabicyclo[2.2.2]octane-3-one] | ED50 ([2]; Rattus norvegicus, oral gavage, [H] mevalonolactone i.p. after 1 hr): 13.4 mg/kg
18 | 15 | O=C1C2CCC(CC2)N1CCCOc1ccc(C#Cc2cccc3ncccc23)cc1 [Compound 22, 2-[3-[4-(quinolin-5-yl-ethynyl)phenoxy]propan-1-yl]-2-azabicyclo[2.2.2]-octan-3-one hydrochloride] | inhibition at 30 mg/kg ([2]; Rattus norvegicus): 25.1%
